{"source": "patent US7223759B2", "about": "“Antibacterial 3,5-diaminopiperidine-substituted aromatic and heteroaromatic compounds” (Anadys Pharmaceuticals, Inc., priority 2003, dated 2007)"}
{"test_system": "Escherichia coli (ATCC25922) or Staphylococcus aureus (ATCC25923)", "test": "Antibacterial MIC, microdilution method in Mueller-Hinton medium", "assay_type": "cell-based", "conditions": "Escherichia coli, 18 h, MIC in E. coli or S. aureus; two-fold serial dilutions 64 to 0.5 μg/ml in duplicate; 18 hours of incubation at 35° C.; read-out: Potency (MIC)", "how_it_was_run": "(§1)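 Read after 18 h incubation at 35° C, MIC is the lowest compound level that blocked growth. Compounds were tested in duplicate over 64–0.5 μg/ml two-fold dilutions using Mueller-Hinton microdilution per NCCLS standard.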", "units": {"MIC": "mg/L"}}
{"compound": "Cc1ccc(C(=O)Nc2ccc(Nc3nc(N4CCN(c5ccncc5)CC4)nc(N4C[C@H](N)C[C@H](N)C4)n3)cc2O)cc1", "note": "[N-{4-[4-((3R,5S)-3,5-Diamino-piperidin-1-yl)-6-(4-pyridin-4-yl-piperazin-1-yl)-[1,3,5]triazin-2-ylamino]-2-hydroxy-phenyl}-4-methyl-benzamide]", "MIC": "< 64"}
{"compound": "Cc1ccc(C(=O)Nc2ccc(Nc3nc(N4CCCCC4)nc(N4CCC(N5CCCC5)CC4)n3)cc2O)cc1", "note": "[N-{4-[4-((3R,5S)-3,5-Diamino-piperidin-1-yl)-6-(4-pyrrolidin-1-yl-piperidin-1-yl)-[1,3,5]triazin-2-ylamino]-2-hydroxy-phhenyl}-4-methyl-benzamide]", "MIC": "< 64"}
{"compound": "Cc1ccc(S(=O)(=O)N(Cc2ccccc2)c2ccc(Nc3nc(C4CCCCC4)nc(N4CCCCC4)n3)cc2O)cc1.Cl", "note": "[N-{4-[4-((3S,5R)-3-Amino-5-hydroxy-piperidin-1-yl)-6-((3R,5S)-3,5-diamino-piperidin-1-l)-[1,3,5]triazin-2-ylamino]-2-hydroxy-phenyl}-N-benzyl-4-methyl-benzenesulfonamide]", "MIC": "< 64"}
{"compound": "Cc1ccc(C(=O)Nc2ccc(Nc3nc(N(CCN)CCN)nc(N4CCCCC4)n3)cc2O)cc1.Cl", "note": "[N-{4-[4-[Bis-(2-amino-ethyl)-amino]-6-((3R,5S)-3,5-diamino-piperidin-1-yl-[1,3,5]triazin-2-ylamino]-2-hydroxy-phenyl}-4-methyl-benzamide]", "MIC": "< 64"}
{"compound": "Cc1cc(NC(=O)c2cc3cccc(O)c3cc2O)ccc1Nc1nc(N2C[C@H](N)C[C@H](N)C2)nc(N2C[C@H](N)C[C@H](N)C2)n1", "note": "[N-{4-[(3,5-dihydroxy-naphthalene-2-carbonyl)-amino]-2-methyl-phenyl}-4,6-Bis-((3R,5S)-3,5-diamino-piperidin-1-yl)-[1,3,5]triazine-2-amine]", "MIC": "< 64"}
{"compound": "Cc1cc(Nc2nc(N3C[C@H](N)C[C@H](N)C3)nc(N3C[C@H](N)C[C@H](N)C3)n2)ccc1NC(=O)c1cc2cccc(O)c2cc1O", "note": "[N-{4-[(3,5-dihydroxy-naphthalene-2-carbonyl)-amino]-3-methyl-phenyl]-4,6-Bis-((3R,5S)-3,5-diamino-piperidin-1-yl)-[1,3,5]triazine-2-amine]", "MIC": "< 64"}
{"compound": "N[C@@H]1C[C@H](N)CN(c2nc(Nc3ccc(NC(=O)c4cc5cccc(O)c5cc4O)cc3)nc(N3C[C@H](N)C[C@H](N)C3)n2)C1", "note": "[N-{4-[(3,5-dihydroxy-naphthalene-2-carbonyl)-amino]-phenyl}-4,6-Bis-((3R,5S)-3,5-diamino-piperidin-1-yl)-[1,3,5]triazine-2-amine]", "MIC": "< 64"}
{"compound": "N[C@@H]1C[C@H](N)CN(c2nc(Nc3ccc(NC(=O)C45CC6CC(CC(C6)C4)C5)c(O)c3)nc(N3C[C@H](N)C[C@H](N)C3)n2)C1", "note": "[N-{4-[(adamantane-1-carbonyl)-amino]-3-hydroxy-phenyl}-4,6-Bis-((3R,5S)-3,5-diamino-piperidin-1-yl)-[1,3,5]triazine-2-amine]", "MIC": "< 16"}
{"test_system": "Escherichia coli (ATCC25922) or Staphylococcus aureus (ATCC25923)", "test": "Antibacterial MIC, microdilution method in Mueller-Hinton medium", "assay_type": "cell-based", "conditions": "Escherichia coli, 18 h, read-out: Potency (MIC)", "how_it_was_run": "as §1", "units": {"MIC": "mg/L"}}
{"compound": "Cc1ccc(S(=O)(=O)N(Cc2ccccc2)c2ccc(Nc3nc(N4C[C@H](N)C[C@H](N)C4)nc(N4CC[C@H](O)[C@H](CN)C4)n3)c(O)c2)cc1", "note": "[N-{4-[4-((3R,4S)-3-Aminomethyl-4-hydroxy-piperidin-1-yl)-6-((3R,5S)-3,5-diamino-piperidin-1-yl)-[1,3,5]triazin-2-ylamino]-3-hydroxy-phenyl}-N-benzyl-4-methyl-benzenesulfonamide]", "MIC": "< 64"}
{"compound": "NC[C@@H]1C[C@H](CN)CN(c2nc(Nc3ccc(NC(=O)c4ccc(Cl)cc4)c(O)c3)nc(N3C[C@H](N)C[C@H](N)C3)n2)C1", "note": "[N-{4-[4-((3R,5S)-3,5-Bis-(aminomethyl)-piperidin-1-yl)-6-((3R,5S)-3,5-diamino-piperidin-1-yl)-[1,3,5]triazin-2-ylamino]-2-hydroxy-phenyl}-4-chloro-benzamide]", "MIC": "< 16"}
{"compound": "Cc1ccc(C(=O)Nc2ccc(Nc3nc(N4C[C@H](N)C[C@H](N)C4)nc(N4CCC[C@@H](O)C4)n3)cc2O)cc1", "note": "[N-{4-[4-((3R,5S)-3,5-Diamino-piperidin-1-yl)-6-((R)-3-hydroxy-piperidin-1-yl)-[1,3,5]triazin-2-ylamino]-2-hydroxy-phenyl}-4-methyl-benzamide]", "MIC": "> 64"}
{"compound": "Cc1ccc(C(=O)Nc2ccc(Nc3nc(NC4CCNCC4)nc(N4C[C@H](N)C[C@H](N)C4)n3)cc2O)cc1", "note": "[N-{4-[4-((3R,5S)-3,5-Diamino-piperidin-1-yl)-6-(piperidin-4-ylamino)-[1,3,5]triazin-2-ylamino]-2-hydroxy-phenyl}-4-methyl-benzamide]", "MIC": "< 16"}
{"compound": "COc1nc(Nc2ccc(NC(=O)c3ccc(C)cc3)c(O)c2)nc(N2C[C@H](N)C[C@H](N)C2)n1", "note": "[N-{4-[4-((3R,5S)-3,5-Diamino-piperidin-1-yl)-6-methoxy-[1,3,5]triazin-2-ylamino]-2-hydroxy-phenyl}-4-methyl-benzamide]", "MIC": "< 64"}
{"compound": "Cc1ccc(C(=O)Nc2ccc(Nc3nc(N4C[C@H](N)C[C@H](N)C4)nc(N4C[C@H](CN)C[C@H](CN)C4)n3)cc2O)cc1", "note": "[N-{4-[4-((3S,5R)-3,5-Bis-(aminomethyl)-piperidin-1-yl)-6-((3R,5S)-3,5-diamino-piperidin-1-yl)-[1,3,5]triazin-ylamino]-2-hydroxy-phenyl}-4-methyl-benzamide]", "MIC": "< 64"}
{"compound": "Cc1ccc(C(=O)Nc2ccc(Nc3nc(N4C[C@H](N)C[C@H](N)C4)nc(N4C[C@@H](N)C[C@@H](O)C4)n3)cc2O)cc1", "note": "[N-{4-[4-((3S,5R)-3-Amino-5-hydroxy-piperidin-1-yl)-6-((3R,5S)-3,5-diamino-piperidin-1-yl)-[1,3,5]triazin-2-ylamino]-2-hydroxy-phenyl}-4-methyl-benzamide]", "MIC": "< 64"}
{"compound": "N[C@@H]1C[C@H](N)CN(c2nc(Nc3ccc(NC(=O)c4ccc(Cl)cc4)c(O)c3)nc(N3C[C@@H](N)C[C@@H](O)C3)n2)C1", "note": "[N-{4-[4-((3S,5R)-3-Amino-5-hydroxy-piperidin-1-yl)-6-((3S,5R)-3,5-diamino-piperidin-1-yl)-[1,3,5]triazin-2-ylamino]-2-hydroxy-phenyl}-4-chloro-benzamide]", "MIC": "< 16"}
{"compound": "NCCN(CCN)c1nc(Nc2ccc(NC(=O)C(=O)c3c[nH]c4ccccc34)c(O)c2)nc(N2C[C@H](N)C[C@H](N)C2)n1", "note": "[N-{4-[4-[Bis-(2-amino-ethyl)-amino]-6-((3R,5S)-3,5-diamino-piperidin-1-yl)-[1,3,5]triazin-2-ylamino]-2-hydroxy-phenyl}-2-(1H-indol-3-yl)-2-oxo-acetamide]", "MIC": "< 16"}
{"compound": "NCCN(CCN)c1nc(Nc2ccc(NC(=O)c3ccc(Cl)cc3)c(O)c2)nc(N2C[C@H](N)C[C@H](N)C2)n1", "note": "[N-{4-[4-[Bis-(2-amino-ethyl)-amino]-6-((3R,5S)-3,5-diamino-piperidin-1-yl)-[1,3,5]triazin-2-ylamino]-2-hydroxy-phenyl}-4-chloro-benzamide]", "MIC": "< 64"}
{"compound": "N[C@@H]1C[C@H](N)CN(c2nc(Nc3ccc(NC(=O)c4ccc5ccccc5c4O)cc3)nc(N3C[C@H](N)C[C@H](N)C3)n2)C1", "note": "[N-{4-[(1-hydroxy-naphthalene-2-carbonyl)-amino]-phenyl}-4,6-Bis-((3R,5S)-3,5-diamino-piperidin-1-yl)-[1,3,5]triazine-2-amine]", "MIC": "< 16"}
{"compound": "N[C@@H]1C[C@H](N)CN(c2nc(Nc3ccc(NC(=O)c4ccc(C(F)(F)F)nc4O)cc3)nc(N3C[C@H](N)C[C@H](N)C3)n2)C1", "note": "[N-{4-[(2-hydroxy-6-trifluoromethyl-pyridine-3-carbonyl)-amino]-phenyl}-4,6-Bis-((3R,5S)-3,5-diamino-piperidin-1-yl)-[1,3,5]triazine-2-amine]", "MIC": "< 16"}
{"compound": "N[C@@H]1C[C@H](N)CN(c2nc(Nc3ccc(NC(=O)c4c(O)ccc5ccccc45)cc3)nc(N3C[C@H](N)C[C@H](N)C3)n2)C1", "note": "[N-{4-[(2-hydroxy-naphthalene-1-carbonyl)-amino]-phenyl}-4,6-Bis-((3R,5S)-3,5-diamino-piperidin-1-yl)-[1,3,5]triazine-2-amine]", "MIC": "< 16"}
{"compound": "N[C@@H]1C[C@H](N)CN(c2nc(Nc3ccc(NC(=O)c4ncccc4O)cc3)nc(N3C[C@H](N)C[C@H](N)C3)n2)C1", "note": "[N-{4-[(3-hydroxy-pyridine-2-carbonyl)-amino]-phenyl}-4,6-Bis-((3R,5S)-3,5-diamino-piperidin-1-yl)-[1,3,5]triazine-2-amine]", "MIC": "< 64"}
{"compound": "N[C@@H]1C[C@H](N)CN(c2nc(Nc3ccc(NC(=O)c4cc(Cl)cnc4O)cc3)nc(N3C[C@H](N)C[C@H](N)C3)n2)C1", "note": "[N-{4-[(5-chloro-2-hydroxy-pyridine-3-carbonyl)-amino]-phenyl}-4,6-Bis-((3R,5S)-3,5-diamino-piperidin-1-yl)-[1,3,5]triazine-2-amine]", "MIC": "< 64"}
{"compound": "N[C@@H]1C[C@H](N)CN(c2nc(Nc3ccc(NC(=O)c4ccc5cccnc5c4O)cc3)nc(N3C[C@H](N)C[C@H](N)C3)n2)C1", "note": "[N-{4-[(8-hydroxy-quinoline-7-carbonyl)-amino]-phenyl}-4,6-Bis-((3R,5S)-3,5-diamino-piperidin-1-yl)-[1,3,5]triazine-2-amine]", "MIC": "< 16"}
{"compound": "N[C@@H]1C[C@H](N)CN(c2nc(Nc3ccc(C(=O)NCc4ccc5c(c4)OCO5)c(O)c3)nc(N3C[C@H](N)C[C@H](N)C3)n2)C1", "note": "[N-{4-[(benzo[1,3]dioxol-5-ylmethyl)-carbamoyl]-3-hydroxy-phenyl}-4,6-Bis-((3R,5S)-3,5-diamino-piperidin-1-yl)-[1,3,5]triazine-2-amine]", "MIC": "< 64"}
{"test_system": "Escherichia coli (ATCC25922) or Staphylococcus aureus (ATCC25923)", "test": "Antibacterial MIC, microdilution method in Mueller-Hinton medium", "assay_type": "cell-based", "conditions": "MIC in E. coli or S. aureus; two-fold serial dilutions 64 to 0.5 μg/ml in duplicate; 18 hours of incubation at 35° C.", "how_it_was_run": "as §1"}
{"compound": "NC[C@@H]1C[C@H](N)CN1c1nc(Nc2ccc(NC(=O)C(=O)c3c[nH]c4ccccc34)c(O)c2)nc(N2C[C@H](N)C[C@H](N)C2)n1", "note": "[N-{4-[4-((2S,4S)-44-Amino-2-aminomethyl-pyrrolidin-1-yl)-6-((3R,5S)-3,5-diamino-piperidin-1-yl)-[1,3,5]triazin-2-ylamino]-2-hydroxy-phenyl}-2-(1H-indol-3-yl)-2-oxo-acetamide]", "Potency (MIC)": "++ (++ means MIC<16 μg/ml in E. coli or S. aureus)"}
